Results published in PMC4886280 (The Journal of General Physiology, 2016).

Target: T1, P2X7 (Homo sapiens, UniProt Q99572)
T1 sequence (Q99572 1-595): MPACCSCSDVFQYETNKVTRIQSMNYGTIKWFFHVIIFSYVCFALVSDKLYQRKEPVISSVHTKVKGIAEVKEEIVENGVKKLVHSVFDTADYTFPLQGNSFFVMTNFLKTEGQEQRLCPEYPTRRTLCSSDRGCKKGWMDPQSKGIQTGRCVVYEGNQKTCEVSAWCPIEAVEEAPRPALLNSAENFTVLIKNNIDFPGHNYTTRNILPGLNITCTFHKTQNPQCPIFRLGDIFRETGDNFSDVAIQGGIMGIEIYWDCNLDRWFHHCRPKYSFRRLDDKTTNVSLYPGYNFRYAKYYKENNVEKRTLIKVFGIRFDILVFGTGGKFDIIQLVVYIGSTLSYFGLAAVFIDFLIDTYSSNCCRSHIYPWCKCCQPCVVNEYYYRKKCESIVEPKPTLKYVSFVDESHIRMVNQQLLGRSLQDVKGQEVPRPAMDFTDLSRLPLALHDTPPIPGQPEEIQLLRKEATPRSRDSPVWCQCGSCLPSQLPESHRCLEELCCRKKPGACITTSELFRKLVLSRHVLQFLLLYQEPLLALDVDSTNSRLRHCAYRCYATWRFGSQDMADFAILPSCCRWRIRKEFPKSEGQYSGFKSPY
Assay: whole-cell patch clamp, ATP concentration-response in low-DIC bath
Format: cell-based

Nc1ncnc2c1ncn2[C@@H]1O[C@H](COP(=O)(O)OP(=O)(O)OP(=O)(O)O)[C@@H](O)[C@H]1O [ATP]
EC50: 339 ± 27 µM
